{"source": "patent US7919076B2", "about": "“PH-sensitive polymeric conjugates of an anthracycline cancerostatic drug for targeted therapy” (Zentiva, k.s., priority 2001, dated 2011)", "tested_on": "T-cellular lymphoma (EL4)", "assay": "in vivo anti-tumor activity, s.c. T-cellular lymphoma EL4 in C57BL/10 mice", "set-up": "species or system mouse", "procedure": "Mice of inbred strain C57BL/10 were subcutaneously transplanted with T-cellular lymphoma (EL4). The tumor cells were injected in the lower half of the back of experimental animals in the amount of 1×10^5 cells/mouse. The cell transplantation day was marked day 0. Polymeric conjugates with hydrolytically released doxorubicin were then administered intraperitoneally either on day 1, 3, 5, 7 and 9 (protective regimen), on day 10, 12, 14, 16 and 18 or on day 12, 14, 16, 18 and 20 (therapeutic regimen). The daily dose of doxorubicin was 50 μg/mouse."}
{"smiles": "COc1cccc2c1C(=O)c1c(O)c3c(c(O)c1C2=O)C[C@@](O)(C(=O)CO)C[C@@H]3O[C@H]1C[C@H](N)[C@H](O)[C@H](C)O1", "note": "[doxorubicin]", "values": [{"measurement": "anti-tumor effect (tumor growth, survival)", "setting": "EL4, i.p., doxorubicin 50 μg/mouse daily dose", "result": "very limited effect"}, {"measurement": "maximum survival period of the experimental animals", "setting": "EL4, control group 35 days", "result": 40, "unit": "days"}]}
